Tests used:
Conditions in all cases: 72 h
[1] = system: Caco-2; experiment: cell viability relative to DMSO; higher = less toxic
[2] = system: Calu-3; experiment: as above
[3] = system: Vero E6; experiment: as above
[4] = system: U2OS; experiment: as above
[5] = system: HepG2; experiment: as above
[6] = system: Caco-2; experiment: drug sensitivity score (DSS) for viability; higher = more toxic; extreme values may be limits of the assay
[7] = system: Calu-3; experiment: as above
[8] = system: Vero E6; experiment: as above
[9] = system: U2OS; experiment: as above
[10] = system: HepG2; experiment: as above
[11] = system: Caco-2; experiment: relative viability EC50 (midpoint between 100% and the lowest measured viability); higher = less toxic
[12] = system: Calu-3; experiment: as above
[13] = system: Vero E6; experiment: as above
[14] = system: U2OS; experiment: as above
[15] = system: HepG2; experiment: as above

| Compound | cell viability ([1]; 1 nM) [%] | cell viability ([1]; 10 nM) [%] | cell viability ([1]; 100 nM) [%] | cell viability ([1]; 1000 nM) [%] | cell viability ([1]; 10000 nM) [%] | cell viability ([2]; 1 nM) [%] | cell viability ([2]; 10 nM) [%] | cell viability ([2]; 100 nM) [%] | cell viability ([2]; 1000 nM) [%] | cell viability ([2]; 10000 nM) [%] | cell viability ([3]; 1 nM) [%] | cell viability ([3]; 10 nM) [%] | cell viability ([3]; 100 nM) [%] | cell viability ([3]; 1000 nM) [%] | cell viability ([3]; 10000 nM) [%] | cell viability ([4]; 1 nM) [%] | cell viability ([4]; 10 nM) [%] | cell viability ([4]; 100 nM) [%] | cell viability ([4]; 1000 nM) [%] | cell viability ([4]; 10000 nM) [%] | cell viability ([5]; 1 nM) [%] | cell viability ([5]; 10 nM) [%] | cell viability ([5]; 100 nM) [%] | cell viability ([5]; 1000 nM) [%] | cell viability ([5]; 10000 nM) [%] | drug sensitivity score [6] | drug sensitivity score [7] | drug sensitivity score [8] | drug sensitivity score [9] | drug sensitivity score [10] | relative viability EC50 [11] [µM] | relative viability EC50 [12] [µM] | relative viability EC50 [13] [µM] | relative viability EC50 [14] [µM] | relative viability EC50 [15] [µM] |
| --- | --- | --- | --- | --- | --- | --- | --- | --- | --- | --- | --- | --- | --- | --- | --- | --- | --- | --- | --- | --- | --- | --- | --- | --- | --- | --- | --- | --- | --- | --- | --- | --- | --- | --- | --- |
| C[C@@H]1CCO[C@H]2Cn3cc(C(=O)NCc4ccc(F)cc4F)c(=O)c(O)c3C(=O)N12 [dolutegravir] | 102 | 94.4 | 97.6 | 97.7 | 88.2 | 117 | 113 | 101 | 91.1 | 105 | 97.3 | 99.7 | 97 | 100 | 81.9 | 104 | 103 | 104 | 95.6 | 98.5 | 101 | 114 | 107 | 100 | 57.6 | 0.1 | 0 | 0.4 | 0 | 2.1 | > 10 | > 10 | > 10 | > 10 | – |
| CNC[C@H](O)c1ccc(O)c(O)c1 [epinephrine] | 93.7 | 105 | 86.3 | 98.5 | 90 | 101 | 110 | 111 | 111 | 97.3 | 93.3 | 89.7 | 95.1 | 89.6 | 111 | 96.9 | 101 | 98.2 | 104 | 105 | 108 | 106 | 104 | 94.4 | 57.5 | 0 | 0 | 0 | 0 | 3.1 | > 10 | > 10 | > 10 | > 10 | – |
| CCOC(=O)[C@@H](N)CCC(=O)N[C@@H](CSCc1ccccc1)C(=O)N[C@@H](C(=O)OCC)c1ccccc1 [ezatiostat] | 98.4 | 93.4 | 92 | 91 | 86.2 | 97.2 | 103 | 106 | 103 | 91.2 | – | – | – | – | – | 96.9 | 106 | 96.1 | 100 | 95.3 | 101 | 98.8 | 99.4 | 97.1 | 107 | 0.4 | 0 | – | 0 | 0 | > 10 | > 10 | – | > 10 | > 10 |
| NC(=O)c1ccc(I)c([N+](=O)[O-])c1 [iniparib] | – | – | – | – | – | 110 | 99 | 103 | 102 | 114 | – | – | – | – | – | 104 | 95.8 | 96.4 | 104 | 98.4 | 91.2 | 106 | 107 | 94.2 | 106 | – | 0 | – | 0 | 0 | – | > 10 | – | > 10 | > 10 |
| CCCNS(=O)(=O)Nc1ncnc(OCCOc2ncc(Br)cn2)c1-c1ccc(Br)cc1 [macitentan] | 102 | 99.7 | 102 | 104 | 108 | 97.2 | 94.1 | 105 | 99 | 103 | – | – | – | – | – | 101 | 99.5 | 100 | 99.4 | 101 | 99.5 | 108 | 92.7 | 85.5 | 91 | 0 | 0 | – | 0 | 1.8 | > 10 | > 10 | – | > 10 | > 10 |
| O=C(N/N=C/c1ccc([N+](=O)[O-])o1)c1cc([N+](=O)[O-])cc([N+](=O)[O-])c1O [nifursol] | 96.9 | 102 | 97.1 | 94.4 | 90.2 | 89.1 | 102 | 103 | 94.9 | 101 | – | – | – | – | – | 96.9 | 98.3 | 104 | 96.8 | 101 | 109 | 100 | 93 | 93.7 | 85.4 | 0 | 0 | – | 0 | 0.3 | > 10 | > 10 | – | > 10 | > 10 |
| COc1ccc(-c2nc3cc(C4=NNC(=O)CC4C)ccc3[nH]2)cc1 (stereo unspecified) [pimobendan] | 106 | 104 | 98.4 | 96.4 | 80.7 | 98 | 85.8 | 112 | 95.8 | 90.8 | 105 | 110 | 99.2 | 101 | 92.7 | 107 | 105 | 103 | 97.7 | 84.7 | 120 | 113 | 103 | 105 | 59.5 | 1 | 0 | 0 | 0.5 | 1.7 | > 10 | > 10 | > 10 | > 10 | – |
| CCCNCC(O)COc1ccccc1C(=O)CCc1ccccc1 (stereo unspecified) [propafenone] | 94.7 | 89.5 | 98.4 | 92.8 | 88.9 | 105 | 95.3 | 103 | 93.7 | 99.7 | 106 | 108 | 106 | 92.2 | 64.9 | 99.1 | 93.1 | 95.6 | 94.3 | 92.5 | 99.3 | 94 | 96.4 | 99.4 | 75.1 | 0 | 0 | 2.9 | 0 | 1 | > 10 | > 10 | – | > 10 | > 10 |
| CO[C@H]1/C=C/O[C@@]2(C)Oc3c(C)c(O)c4c(O)c(c(/C=N/N5CCN(C)CC5)c(O)c4c3C2=O)NC(=O)/C(C)=C\C=C\[C@H](C)[C@H](O)[C@@H](C)[C@@H](O)[C@@H](C)[C@H](OC(C)=O)[C@@H]1C [rifampin] | 88.9 | 88.7 | 90.8 | 88.5 | 105 | 99.5 | 99.6 | 98.7 | 99.8 | 102 | 68.7 | 97.8 | 70.2 | 103 | 64.7 | 96 | 105 | 98.2 | 97.2 | 86.9 | 97.9 | 102 | 104 | 89.4 | 92.4 | 0 | 0 | 1.2 | 0.3 | 0.1 | > 10 | > 10 | – | > 10 | > 10 |
| Cc1cc(C)c(/C=C2\C(=O)Nc3ccccc32)[nH]1 [semaxanib] | 103 | 90.6 | 100 | 90.4 | 91.3 | 93.2 | 87.4 | 93.6 | 94.9 | 102 | 103 | 102 | 98.7 | 105 | 106 | 99.7 | 96.6 | 100 | 99.4 | 97.4 | 99 | 96.2 | 91 | 92 | 67.1 | 0 | 0 | 0 | 0 | 2.4 | > 10 | > 10 | > 10 | > 10 | – |
| O=C1NCCN1CCN1CCC(c2cn(-c3ccc(F)cc3)c3ccc(Cl)cc23)CC1 [sertindole] | 97.1 | 98.3 | 89.1 | 80.7 | 56.6 | 88.1 | 112 | 96.9 | 92.2 | 90 | 106 | 118 | 105 | 88.6 | 64.5 | 93.8 | 95.3 | 94.6 | 99.8 | 81 | 96.7 | 105 | 93.4 | 87.7 | 20.9 | 4.6 | 0.1 | 3.3 | 0.5 | 6.4 | – | > 10 | – | > 10 | 1.95 |
| CN[C@@H]1[C@H](O)[C@H](NC)[C@H]2O[C@@]3(O)C(=O)C[C@@H](C)O[C@H]3O[C@@H]2[C@H]1O [spectinomycin] | 100 | 102 | 99.4 | 109 | 91.9 | 92.2 | 100 | 105 | 103 | 88.7 | 56 | 108 | 55.1 | 108 | 59.1 | 101 | 107 | 100 | 102 | 98.5 | 88.4 | 105 | 98.7 | 106 | 96.7 | 0 | 0 | 1.2 | 0 | 0 | > 10 | > 10 | – | > 10 | > 10 |
| O=C(N[C@@H]1CC[C@@H](c2cccc(F)c2F)CN(CC(F)(F)F)C1=O)N1CCC(n2c(=O)[nH]c3ncccc32)CC1 [telcagepant] | 104 | 96 | 102 | 90.2 | 86.7 | 94.7 | 98.1 | 95.7 | 105 | 108 | – | – | – | – | – | 98.5 | 99.1 | 104 | 97 | 97.6 | 102 | 101 | 96.9 | 98.8 | 93.2 | 0.6 | 0 | – | 0 | 0 | > 10 | > 10 | – | > 10 | > 10 |
| CC(C)n1nccc1-c1ncccc1COc1cccc(O)c1C=O [voxelotor] | 101 | 95.4 | 96.5 | 104 | 84.6 | 100 | 92.4 | 102 | 98.8 | 101 | – | – | – | – | – | 102 | 97.1 | 96.5 | 95.8 | 94.8 | 98.1 | 109 | 96.9 | 109 | 101 | 0.2 | 0 | – | 0 | 0 | > 10 | > 10 | – | > 10 | > 10 |
| CN(C)CCOC1=Cc2ccccc2Sc2ccc(Cl)cc21 [zotepine] | 92.4 | 84.1 | 91.9 | 90.7 | 75.7 | 101 | 85.3 | 93.3 | 104 | 80.8 | 99.4 | 93.6 | 98.6 | 94.1 | 70.4 | 104 | 97.2 | 97.7 | 91.5 | 92.4 | 104 | 95 | 98.7 | 91.8 | 45.7 | 0 | 0.4 | 2.2 | 0 | 4.3 | > 10 | > 10 | – | > 10 | 1.98 |

Source: the supplement of paper PMC13380429
